In patent publication US20090082322A1, “Gender Differences in Experimental Aortic Aneurysm Formation” (THE REGENTS OF THE UNIVERSITY OF MICHIGAN, priority 2004, published 2009):

Tested on: elastase-perfused infrarenal abdominal aorta of male rats
Experiment: Elastase perfusion aneurysm model after estrogen pellet implantation, aortic diameter
Assay type: in vivo, Sprague-Dawley rats
Conditions: 0.1-mg 21-day slow-release pellet s.c.
Procedure: Pancreatic porcine elastase perfusion of the rat aortas was performed as described previously. (Anidjar S, et al., Circulation, 82:973-981 (1990)). Male and female rats (n=15, each) were anesthetized with 2-2.5% isoflurane inhalation, and the infrarenal abdominal aorta was isolated under sterile conditions. Digital video micrometry was performed to directly measure outer aortic diameter. Specifically, images of the aorta were obtained using a Spot Insight Color Optical Camera (Diagnostic Instruments, Sterling Heights, Mich.) attached to an operating microscope (Nikon, Melville, N.Y.). Aortic diameters were then measured at the level of the left renal vein, the mid-infrarenal aorta, and the aortic bifurcation in triplicate using Image Pro Express software (Media Cybernetics, Inc, Silver Spring, Md.). Temporary proximal and distal aortic control was obtained using temporary 4-0 cotton suture loops, following which an aortotomy was made near the aortic bifurcation with a 30-gauge needle. […] At 7 or 14 days, aortas were re-exposed and aortic diameters were re-measured in vivo. […] The infrarenal aorta was then removed and subjected to histological study, immunohistochemistry, and quantitative polymerase chain reaction (PCR). […]

C[C@]12CC[C@@H]3c4ccc(O)cc4CC[C@H]3[C@@H]1CC[C@@H]2O [17-β-estradiol]
aortic expansion (increase in aortic diameter) (7 days after elastase perfusion, sham 197%±39%, P=0.010): 124%±19 | aneurysm size (increase in aortic diameter) (14 days after elastase perfusion, sham 538%±105, P=0.0226): 241%±57
